Where two headings read alike, the source gives them in different places.
Tests used:
Caco-2 = experiment: Cytotoxicity test, WST-8 (cell counting kit-8), 48 hours; assay type: cell-based; conditions: Homo sapiens, Caco-2, KRAS wild type, read-out: KR12 IC50
Experimental: (§1) Using colon cancer and pancreatic cancer cell lines, the cells were seeded in each well of a 96-well microplate, resulting in a cell density of 3000 to 5000 cells/well, and they were then cultured overnight. On the following day, the cells of each type were treated with KR12 recognizing a codon 12 mutation in concentrations of 1 nM, 10 nM, 30 nM, 100 nM, 300 nM, and 1 μM for 48 hours. Thereafter, a WST-8 reagent was added to each well, using cell counting kit-8, and the obtained mixture was then reacted for 2 hours. After that, the number of cells was counted at a wavelength of 450 nm according to a colorimetric analysis method using a microplate reader. The method of counting the number of cells comprises: 1) obtaining the mean value of the medium alone, 2) subtracting the mean value of the medium from each well, 3) obtaining the mean value of DMSO, 4) dividing the medium-subtracted value by the mean value of DMSO and then multiplying by 100, 5) obtaining the mean value of each treatment group and a standard deviation, and then preparing a graph. The calculation formula of IC50 is the following: IC50=10 (LOG (A/B)×(50−C)/(D−C)+LOG (B)), wherein A: a higher concentration of two concentrations sandwiching 50%, B: a lower concentration of two concentrations sandwiching 50%, C: inhibitory percentage at B, and D: inhibitory percentage at A.
(§2) The cells used in the aforementioned experiment are human cancer cell lines SW480, SW620, SNU-C2B, LS180, SW1463, DLD-1, HT29, and Caco-2 (purchased from European Collection of Cell Cultures (ECACC)).

SW1463 = experiment: as above; assay type: cell-based; conditions: SW1463, KRAS G12C Homo, read-out: KR12 IC50
Experimental: as §1, §2

SW620 = experiment: as above; assay type: cell-based; conditions: SW-620, SW620, KRAS G12V Homo, read-out: KR12 IC50
Experimental: as §1, §2

SW480 = experiment: as above; assay type: cell-based; conditions: SW480, KRAS G12V Homo, read-out: KR12 IC50
Experimental: as §1, §2

HT-29 = experiment: as above; assay type: cell-based; conditions: Homo sapiens, HT-29, KRAS wild type, read-out: KR12 IC50
Experimental: as §1, §2

SNU-C2B = experiment: as above; assay type: cell-based; conditions: Homo sapiens, KRAS G12D Hetero, read-out: KR12 IC50
Experimental: as §1, §2

DLD-1 = experiment: as above; assay type: cell-based; conditions: Homo sapiens, DLD-1, KRAS G13D Hetero, read-out: KR12 IC50
Experimental: as §1, §2

LS180 cells = experiment: as above; assay type: cell-based, human; conditions: Homo sapiens
Experimental: Using LS180 colon cell line, the cells were seeded in each well of a 96-well microplate, resulting in a cell density of 3000 to 5000 cells/well, and they were then cultured overnight. On the following day, KR12 recognizing a codon 12 mutation, WT recognizing wild-type KRAS, and C12-Dp having the same structure as that of KR12, to which an alkylating agent had not been added, were each added to the cultured cells in concentrations of 1 nM, 10 nM, 30 nM, 100 nM, 300 nM, and 1 μM, and were then treated for 48 hours. Thereafter, a WST-8 reagent was added to each well, using cell counting kit-8 (DOJINDO), and the obtained mixture was then reacted for 2 hours. After that, the number of cells was counted at a wavelength of 450 nm according to a colorimetric analysis method using a microplate reader. The method of counting the number of cells comprises: 1) obtaining the mean value of the medium alone, 2) subtracting the mean value of the medium from each well, 3) obtaining the mean value of DMSO, 4) dividing the medium-subtracted value by the mean value of DMSO and then multiplying by 100, 5) obtaining the mean value of each treatment group and a standard deviation, and then preparing a graph. The calculation formula of IC50 is the following: IC50=10 (LOG (A/B)×(50−C)/(D−C)+LOG (B)), wherein A: a higher concentration of two concentrations sandwiching 50%, B: a lower concentration of two concentrations sandwiching 50%, C: inhibitory percentage at B, and D: inhibitory percentage at A.
as §1, with “The calculation formula of IC50 is the following: IC50=10 (LOG (A/B)×(50−C)/(D−C)+LOG (B)), wherein A: a higher concentration of two concentrations sandwiching 50%, B: a lower concentration of two concentrations sandwiching 50%, C: inhibitory percentage at B, and D: inhibitory percentage at A.” left out

LS180 = experiment: Cell growth of KR12-treated LS180 cells (FIG. 12B); assay type: cell-based, human; conditions: LS180, FIG. 12B
PANC-1 = experiment: Cytotoxicity test, WST-8 (cell counting kit-8), 48 hours; assay type: cell-based; conditions: Homo sapiens, PANC-1, KRAS G12D Hetero, read-out: KR12 IC50
Experimental: as §1

K375 = experiment: as above; assay type: cell-based; conditions: K375, KRAS G12D Hetero, read-out: KR12 IC50
Experimental: as §1

[1] = system: active-type KRAS proteins (p21-ras proteins); experiment: Measurement of RAS activity (RAS activation assay kit); assay type: cell-based, human; conditions: LS180, 50 nM, 48 hours, FIG. 12A
Experimental: Cells (the number of cells: 2×10^6 cells/100 mm plate or 1×10^6 cells/100 mm plate) were cultured in a complete nutrient medium, and on the following day, the cultured cells were treated with 50 nM KR12 or KR13, followed by culture for 48 hours. Thereafter, the resulting cells were dissolved in a magnesium lysis buffer (MLB), and a RAS activity level was then measured using a RAS activation assay kit (Millipore, MA).

**Q.** Which results are given for `CC(=O)Nc1cn(C)c(C(=O)Nc2cc(C(=O)NCCC(=O)Nc3cn(C)c(C(=O)Nc4cn(C)c(C(=O)Nc5cc(C(=O)Nc6cn(C)c(C(=O)NCCCC(=O)Nc7cc(C(=O)Nc8cn(C)c(C(=O)NCCC(=O)Nc9cc(C(=O)Nc%10cc(C(=O)Nc%11ccc%12[nH]c(C(=O)N%13CC(CCl)c%14c%13cc(O)c%13ccccc%14%13)cc%12c%11)n(C)c%10)n(C)c9)n8)n(C)c7)n6)n(C)c5)n4)n3)n(C)c2)n1` (stereo not shown) [KR12]?
**A.** IC50 (Caco-2): 105 nM; IC50 (SW1463): 178 nM; IC50 (SW620): 17 nM; IC50 (SW480): 31 nM; IC50 (HT-29): 102 nM; IC50 (SNU-C2B): 57 nM; IC50 (DLD-1): 153 nM; IC50 (LS180 cells; LS180, KRAS G12D Hetero, Table 1, read-out: KR12 IC50): 42 nM; IC50 (LS180 cells; LS180 cells, WST-8, FIG. 8, read-out: IC50): 53 nM; cell growth (LS180): suppressed; IC50 (PANC-1): 81 nM; IC50 (K375): 78 nM; activity of the detected KRAS protein (RAS activity level) [1]: decreased

— patent publication US11185593B2, “Alkylating agent for alkylating target with driver oncogene mutation” (Chiba Prefecture, priority 2013, dated 2021)
